From the NIST ThermoML archive (doi:10.1021/je800110r)

Settings: 303.16 K, Liquid, Vibrating tube method

CCCCCCCCCC [decane]
Settings	mass density [kg/m3]
17693 kPa	735.8
17724 kPa	735.9
17745 kPa	735.8
17773 kPa	735.9
17801 kPa	735.9
17825 kPa	735.9
17850 kPa	735.9
17878 kPa	735.9
17909 kPa	736
17931 kPa	735.9
17959 kPa	736
17977 kPa	736.1
18013 kPa	736
18041 kPa	736.1
18063 kPa	736.1
18092 kPa	736.1
18122 kPa	736
18144 kPa	736.1
18169 kPa	736.2
18195 kPa	736.2
18227 kPa	736.2
18253 kPa	736.1
18275 kPa	736.3
18304 kPa	736.2
18334 kPa	736.3
18356 kPa	736.2
18390 kPa	736.2
18413 kPa	736.4
18436 kPa	736.4
18466 kPa	736.3
18489 kPa	736.3
18523 kPa	736.4
18546 kPa	736.4
18569 kPa	736.4
18595 kPa	736.4
18614 kPa	736.5
18641 kPa	736.5
18664 kPa	736.5
18699 kPa	736.5
18738 kPa	736.5
18762 kPa	736.5
18789 kPa	736.5
18820 kPa	736.6
18843 kPa	736.6
18883 kPa	736.7
18914 kPa	736.5
18938 kPa	736.8
18962 kPa	736.7
18998 kPa	736.7
19031 kPa	736.7
19060 kPa	736.7
19085 kPa	736.7
19122 kPa	736.9
19159 kPa	736.8
19184 kPa	736.8
19223 kPa	736.9
19247 kPa	736.9
19269 kPa	736.8
19302 kPa	736.9
19335 kPa	737
19360 kPa	737
19383 kPa	737
19412 kPa	737
19434 kPa	737
19456 kPa	737
19477 kPa	736.9
19498 kPa	737.1
19522 kPa	737.1
19544 kPa	737.2
19566 kPa	737.2
19587 kPa	737.1
19612 kPa	737
19634 kPa	737.2
19656 kPa	737.1
19678 kPa	737.2
19703 kPa	737.3
19725 kPa	737.3
19748 kPa	737.3
19771 kPa	737.2
19794 kPa	737.2
19817 kPa	737.2
19841 kPa	737.2
19862 kPa	737.2
19880 kPa	737.3
19906 kPa	737.3
19925 kPa	737.4
19938 kPa	737.4
19956 kPa	737.4
19976 kPa	737.4
19997 kPa	737.4
20013 kPa	737.5
20034 kPa	737.3
20052 kPa	737.5
20073 kPa	737.5
20089 kPa	737.5
20104 kPa	737.4
20123 kPa	737.5
20143 kPa	737.6
20164 kPa	737.5
20180 kPa	737.6
20201 kPa	737.5
20222 kPa	737.6
20238 kPa	737.6
20259 kPa	737.6
20280 kPa	737.6
20293 kPa	737.7
20307 kPa	737.6
20323 kPa	737.7
20347 kPa	737.7
20369 kPa	737.7
20396 kPa	737.7
20420 kPa	737.6
20439 kPa	737.7
20461 kPa	737.7
20477 kPa	737.6
20501 kPa	737.8
20529 kPa	737.7
20545 kPa	737.7
20567 kPa	737.8
20586 kPa	737.9
20606 kPa	737.8
20625 kPa	737.8
20650 kPa	737.9
20667 kPa	737.9
20683 kPa	737.9
20706 kPa	738
20728 kPa	737.9
20745 kPa	738
20764 kPa	738
20787 kPa	738.1
20810 kPa	738
20827 kPa	738
20846 kPa	738
20863 kPa	738
20880 kPa	738
20897 kPa	738
20911 kPa	738.1
